The results in this text go back to ChEMBL document CHEMBL1201862, “PubChem BioAssay data set” (2004).

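Five concentrations, 48 hours, 96-well plates. GI50 marks 50% less growth.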 Activity calls are given as the source filed them. Cut-off read from the data, not from the text of the source: active = GI50 up to about 1.1 µM and inactive = higher.

Test systems include TK-10; HT-29; CCRF-CEM; K562; T47D; MDA-MB-435; 786-0; ACHN; Hs-578T; SR; SK-OV-3; SF-268; HL-60; NCI-H522; SK-MEL-28; SN12C; NCI-H226; SK-MEL-2; NCI-H460; SNB-75.
Common to all, as to assay: NCI anticancer screen, dose series, 48 h

With `Cc1cn(C2C=CC(COP(=O)(OCc3ccc([N+](=O)[O-])o3)N(C)CCCCCl)O2)c(=O)[nH]c1=O` (stereo not given), the GI50 in the assay on TK-10 is 16.6 µM (inactive); with HT-29, 11.7 µM (inactive); with CCRF-CEM, 5.43 µM (inactive); in the assay with K562, 2.08 µM (inactive); in the assay with T47D, 1.57 µM (inactive); in the assay with MDA-MB-435, 1.8 µM (inactive). Besides, the GI50 in the assay with 786-0 is 10.9 µM (inactive); with ACHN it was 15.3 µM (inactive); with Hs-578T, 2.17 µM (inactive); with SR, 1.89 µM (inactive); with SK-OV-3 it was 11.7 µM (inactive); in the assay on SF-268, 7.57 µM (inactive). In addition, the GI50 in the assay on HL-60 was 9.31 µM (inactive); in the assay on NCI-H522, 1.85 µM (inactive); in the assay with SK-MEL-28 it was 10.6 µM (inactive); with SN12C, 10.8 µM (inactive); with NCI-H226 it was 10.6 µM (inactive); with SK-MEL-2, 3.48 µM (inactive). For the same compound, the GI50 in the assay on NCI-H460 is 10 µM (inactive); in the assay with SNB-75, 1.58 µM (inactive).
Take `O=C1/C(=C/c2ccccc2)CN(C(=O)CCN2CCCC2)C/C1=C\c1ccccc1`: the GI50 was 3.12 µM (inactive) with TK-10; 0.867 µM (active) in the assay with HT-29; 0.286 µM (active) in the assay on CCRF-CEM; 0.287 µM (active) in the assay on K562; 1.76 µM (inactive) in the assay on T47D; 1.28 µM (inactive) in the assay on MDA-MB-435. The GI50 is 0.895 µM (active) in the assay with 786-0; 1.98 µM (inactive) with ACHN; 0.282 µM (active) in the assay on Hs-578T; 0.219 µM (active) with SR; 8.26 µM (inactive) with SK-OV-3; 1.72 µM (inactive) with SF-268. Further, the GI50 in the assay on HL-60 was 0.298 µM (active); in the assay with NCI-H522, 1.31 µM (inactive); in the assay on SK-MEL-28 it was 1.62 µM (inactive); in the assay on SN12C, 1.51 µM (inactive); in the assay with NCI-H226, 6 µM (inactive); with SK-MEL-2, 2.77 µM (inactive). Also, the results for the GI50 in the assay with NCI-H460 and with SNB-75 were 1.77 µM (inactive) and 4.98 µM (inactive), respectively.
As for `CCC(NC(C)c1ccccc1)C(O)c1ccc(OCc2ccccc2)c(OCc2ccccc2)c1` (stereo not given), the GI50 with TK-10 was 17.8 µM (inactive); in the assay with HT-29, 3.31 µM (inactive); with CCRF-CEM, 14.2 µM (inactive); with K562, 3.22 µM (inactive); in the assay with T47D, 15.1 µM (inactive); in the assay with MDA-MB-435 it was 13.8 µM (inactive). Moreover, the GI50 with 786-0 is 13.5 µM (inactive); in the assay with ACHN it was 18 µM (inactive); in the assay with Hs-578T, 19 µM (inactive); in the assay on SR, 2.47 µM (inactive); in the assay with SK-OV-3 it was 15.5 µM (inactive); in the assay with SF-268 it was 19.4 µM (inactive). In addition, the GI50 in the assay on HL-60 is 13.8 µM (inactive); in the assay on NCI-H522, 15.7 µM (inactive); with SK-MEL-28, 19.9 µM (inactive); with SN12C it was 15.1 µM (inactive); in the assay on NCI-H226, 18.6 µM (inactive); with SK-MEL-2, 14.9 µM (inactive). Besides, the GI50 is 15.1 µM (inactive) in the assay with NCI-H460 and 10.6 µM (inactive) in the assay on SNB-75.
Turning to `COc1ccc(NS(=O)(=O)c2ccc(NC(NC(=O)CC(C)C)(C(F)(F)F)C(F)(F)F)cc2)nn1`, the GI50 with TK-10, in the assay on HT-29, in the assay on CCRF-CEM, in the assay on K562, in the assay with T47D and in the assay with MDA-MB-435 was > 100 µM (inactive) each time. The GI50 in the assay with 786-0, with ACHN, with Hs-578T, with SR, with SK-OV-3 and in the assay on SF-268 was > 100 µM (inactive) in each case. Besides, the GI50 in the assay on HL-60, in the assay with NCI-H522, with SK-MEL-28, in the assay on SN12C, in the assay with NCI-H226 and in the assay with SK-MEL-2 was > 100 µM (inactive) each time. Besides, the GI50 with NCI-H460 and in the assay with SNB-75 was > 100 µM (inactive) each time.
For `COc1cc2c(cc1C)NC(=O)/C2=C/c1c(Cl)[nH]c2cc(C)c(OC)cc12`, the GI50 with TK-10 was 7.1 µM (inactive); with HT-29, 4.29 µM (inactive); with CCRF-CEM, 0.458 µM (active); in the assay on K562 it was 4.36 µM (inactive); in the assay on T47D, 2.23 µM (inactive); in the assay on MDA-MB-435, 2.69 µM (inactive). The GI50 was 3.23 µM (inactive) in the assay on 786-0; 2.25 µM (inactive) in the assay on ACHN; 8.65 µM (inactive) in the assay on Hs-578T; 0.428 µM (active) in the assay with SR; 1.3 µM (inactive) in the assay on SK-OV-3; 2.79 µM (inactive) in the assay with SF-268. The GI50 with HL-60 was 0.187 µM (active); in the assay with NCI-H522 it was 5.25 µM (inactive); with SK-MEL-28 it was 8.13 µM (inactive); with SN12C, 1.86 µM (inactive); in the assay on NCI-H226, 17.2 µM (inactive); in the assay on SK-MEL-2, 8.38 µM (inactive). Moreover, the figures for the GI50 with NCI-H460 and in the assay on SNB-75 were 0.774 µM (active) and 2.34 µM (inactive), respectively.
